The nature of the data set: Relaxivity determinations (T1 and T2 relaxation times, Bruker Minispec mq60). Conditions: in PBS, 0.25-1 mM Fe chelate, 60 MHz, 40° C.; gradient of 1/T1 vs Fe chelate concentration. The class given is physicochemical. As to the method: A stock solution having a concentration of 1 mM of the contrast enhancement agent was prepared in phosphate buffered saline (PBS) and the iron concentration was verified by elemental analysis. Separate 0.75 mM, 0.50 mM and 0.25 mM samples were prepared from the stock by dilution in PBS and the T1 and T2 relaxations times were recorded in triplicate for each using sample on a Bruker Minispec mq60 instrument (60 MHz, 40° C.). The relaxivities (r1 and r2) were obtained as the gradient of 1/Tx (x=1,2) plotted against Fe chelate concentration following linear least squares regression analysis. Data for contrast enhancement agents having structures III, IV, V, VI, VII, and VII, and a non-hydroxylated control contrast enhancement agent.
With FeHBED(OH) [VI], the r1 relaxivity came to 1.1 mM⁻¹ s⁻¹.
FeHBED(Me)2(OH)2 [III] displayed a r1 relaxivity of 0.9 mM⁻¹ s⁻¹.
Take FeHBED(OH')2 [VII]: the r1 relaxivity is 1.0 mM⁻¹ s⁻¹.
Take FeHBED(OH)2 [IV]: the r1 relaxivity was 0.8 mM⁻¹ s⁻¹.

(Values after US8378134B2, “Hydroxylated contrast enhancement agents” (General Electric Company, priority 2009, dated 2013).)
